Measured values taken from PMC11855827, “High-Throughput Screening of Five Compound Libraries for Anthelmintic Activity and Toxicity Leads to the Discovery of Two Flavonoid Compounds” (International Journal of Molecular Sciences, 2025).
Like-named read-outs stand apart in the source and are kept apart here.

Test system: C. elegans
Experiment: microbe, parasite or virus in culture
Conditions: Caenorhabditis elegans
[1] = 0 h, read-out: Percentage of motility inhibition 0 h, Table S2, C. elegans SS assay, 110 μM, 0 h, averages of 4 data points
[2] = 24 h, read-out: Percentage of motility inhibition 24 h, Table S2, C. elegans SS assay, 110 μM, 24 h, averages of 4 data points
[3] = 0 h, read-out: Percentage of motility inhibition 0 h
[4] = 24 h, read-out: Percentage of motility inhibition 24 h

Structure (SMILES): O=C(O)[C@H]1C2CCC(CC2)[C@@H]1Nc1nc(-c2c[nH]c3ncc(F)cc23)ncc1F [Pimodivir]
- inhibition at 110 µM [1]: 7%
- inhibition at 110 µM [2]: 9%

Structure (SMILES): O=C1C[C@@H](c2ccccc2)Oc2cc(O)cc(O)c21 [Pinocembrin]
- inhibition at 110 µM [1]: 44%
- inhibition at 110 µM [2]: 5%

Structure (SMILES): COc1cc(O)c2c(c1)O[C@H](c1ccccc1)CC2=O [Pinostrobin]
- inhibition at 110 µM [3]: 1%
- inhibition at 110 µM [4]: 7%

Structure (SMILES): CCn1cc(C(=O)O)c(=O)c2cnc(N3CCNCC3)nc21 [Pipemidic acid]
- inhibition at 110 µM [1]: 31%
- inhibition at 110 µM [2]: 14%

Structure (SMILES): C1CNCCN1 [Piperazine]
- inhibition at 110 µM [1]: 3%
- inhibition at 110 µM [2]: 0%

Structure (SMILES): O=C(/C=C/C=C/c1ccc2c(c1)OCO2)N1CCCCC1 [Piperine]
- inhibition at 110 µM [1]: 0%
- inhibition at 110 µM [2]: 21%

Structure (SMILES): CC1=CC(=O)C(C(C)C)CC1 (centres unmarked) [Piperitone]
- inhibition at 110 µM [1]: 10%
- inhibition at 110 µM [2]: 11%

Structure (SMILES): CC(C)CNC(=O)/C=C/C=C/c1ccc2c(c1)OCO2 [Piperlonguminine]
- inhibition at 110 µM [1]: 34%
- inhibition at 110 µM [2]: 22%

Structure (SMILES): CCn1cc(C(=O)O)c(=O)c2cnc(N3CCCC3)nc21 [Piromidic acid]
- inhibition at 110 µM [1]: 9%
- inhibition at 110 µM [2]: 8%

Structure (SMILES): C[C@@H]1O[C@@H](O[C@H]2[C@H](OC(=O)[C@]34CCC(C)(C)C[C@H]3C3=CC[C@@H]5[C@@]6(C)C[C@H](O)[C@H](O[C@@H]7O[C@H](CO)[C@@H](O)[C@H](O[C@@H]8O[C@H](CO)[C@@H](O)[C@H](O)[C@H]8O)[C@H]7O)C(CO)(CO)[C@@H]6CC[C@@]5(C)[C@]3(C)C[C@H]4O)OC[C@H](O)[C@@H]2O)[C@H](O)[C@H](O)[C@H]1O[C@@H]1OC[C@@H](O)[C@H](O[C@@H]2OC[C@](O)(CO)[C@H]2O)[C@H]1O [Platycodin D2]
- inhibition at 110 µM [1]: 0%
- inhibition at 110 µM [2]: 2%

Structure (SMILES): C[C@@H]1O[C@@H](O[C@H]2[C@H](OC(=O)[C@]34CCC(C)(C)C[C@H]3C3=CC[C@@H]5[C@@]6(C)C[C@H](O)[C@H](O[C@@H]7O[C@H](CO)[C@@H](O)[C@H](O)[C@H]7O)C(CO)(CO)[C@@H]6CC[C@@]5(C)[C@]3(C)C[C@H]4O)OC[C@H](O)[C@@H]2O)[C@H](O)[C@H](O)[C@H]1O[C@@H]1OC[C@@H](O)[C@H](O[C@@H]2OC[C@](O)(CO)[C@H]2O)[C@H]1O [Platycodin D]
- inhibition at 110 µM [1]: 0%
- inhibition at 110 µM [2]: 15%

Structure (SMILES): Cc1cc(CCCOc2c(C)cc(-c3noc(C(F)(F)F)n3)cc2C)on1 [Pleconaril]
- inhibition at 110 µM [1]: 4%
- inhibition at 110 µM [2]: 14%

Structure (SMILES): C=C[C@]1(C)C[C@@H](OC(=O)CO)[C@]2(C)[C@H](C)CC[C@]3(CCC(=O)[C@H]32)[C@@H](C)[C@@H]1O [Pleuromutilin]
- inhibition at 110 µM [1]: 33%
- inhibition at 110 µM [2]: 10%

Structure (SMILES): COc1cc([C@@H]2c3cc4c(cc3[C@H](O)[C@H]3COC(=O)[C@H]23)OCO4)cc(OC)c1OC [Podofilox]
- inhibition at 110 µM [1]: 0%
- inhibition at 110 µM [2]: 9%

Structure (SMILES): C[C@@H]1CC[C@]2(C(=O)O)CC[C@]3(C)C(=CC[C@@H]4[C@@]5(C)CC[C@H](O)C(C)(C)[C@@H]5CC[C@]43C)[C@@H]2[C@]1(C)O [Pomolic acid]
- inhibition at 110 µM [1]: 29%
- inhibition at 110 µM [2]: 67%

Structure (SMILES): COc1ccc([C@@H]2CC(=O)c3c(O)cc(O[C@@H]4O[C@H](CO)[C@@H](O)[C@H](O)[C@H]4O[C@@H]4O[C@@H](C)[C@H](O)[C@@H](O)[C@H]4O)cc3O2)cc1 [Poncirin]
- inhibition at 110 µM [1]: 13%
- inhibition at 110 µM [2]: 3%

Structure (SMILES): C=C1C(=O)[C@@]23[C@@H]4OC5O[C@@]2(O)[C@@H](O)[C@@H]2C(C)(C)CC[C@@H](O)[C@]52[C@@H]3CC[C@@H]14 [Ponicidin]
- inhibition at 110 µM [1]: 4%
- inhibition at 110 µM [2]: 0%

Structure (SMILES): C=C(CC[C@@H](C(=O)O)[C@H]1[C@H](O)C[C@@]2(C)C3=CC[C@@H](C(=C)C)[C@](C)(CCC(=O)O)C3=CC[C@]12C)C(C)C [Poricoic acid A]
- inhibition at 110 µM [3]: 2%
- inhibition at 110 µM [4]: 8%

Structure (SMILES): C=C(C)[C@@H]1CC=C2C(=CC[C@]3(C)[C@@H]([C@@H](CCC=C(C)C)C(=O)O)[C@H](O)C[C@@]23C)[C@@]1(C)CCC(=O)O [Poricoic acid B]
- inhibition at 110 µM [1]: 14%
- inhibition at 110 µM [2]: 0%
